Experimental data taken from PMC9032790.
Converted amounts (≈) assume the structure as drawn. Marks after values point to notes of the source that are not given here.

How the values were obtained:
[1] = test system: 5C3-RAb; assay: THC-H-OVA-based heterologous ic-ELISA with 5C3-RAb; assay type: binding, mouse; conditions: for cross-reactivity rate: ic-ELISA, IC50 of clothianidin / IC50 of analogue × 100%
[2] = test system: 1F7-RAb; assay: IMI-H-OVA-based heterologous ic-ELISA with 1F7-RAb; assay type: binding, mouse; conditions: for cross-reactivity rate: ic-ELISA, IC50 of clothianidin / IC50 of analogue × 100%
[3] = test system: PcAb [22] (anti-clothianidin antibody); parameters: method as in PMID 23527939; conditions: ic-ELISA, cited from earlier work; for cross-reactivity rate: IC50 of clothianidin / IC50 of analogue × 100%
[4] = test system: McAb [23] (anti-clothianidin antibody); parameters: method as in PMID 23202236; conditions: ic-ELISA, cited from earlier work; for cross-reactivity rate: IC50 of clothianidin / IC50 of analogue × 100%
[5] = test system: McAb [35] (anti-clothianidin antibody); parameters: method as in PMID 25173856; conditions: ic-ELISA, cited from earlier work; for cross-reactivity rate: IC50 of clothianidin / IC50 of analogue × 100%
[6] = test system: 5C3-McAb; assay: heterologous ic-ELISA with 5C3-McAb; conditions: for cross-reactivity rate: IC50 of clothianidin / IC50 of analogue × 100%
[7] = test system: 1F7-McAb; assay: heterologous ic-ELISA with 1F7-McAb; conditions: for cross-reactivity rate: IC50 of clothianidin / IC50 of analogue × 100%
[8] = test system: 1F7-RAb; assay: non-competitive SPR with immobilized 1F7-RAb; assay type: binding, mouse
[9] = test system: 5C3-RAb; assay: non-competitive SPR with immobilized 5C3-RAb; assay type: binding, mouse
[10] = test system: 1F7-RAb; assay: 1F7-RAb-based GICA, selectivity and sensitivity in standard solution; assay type: binding, mouse; conditions: analyte at 1000 μg/L, judged with the naked eye
[11] = test system: six potential antibodies from hybridoma culture supernatants; assay: homologous ic-ELISA hybridoma screening (CLO-H-OVA); conditions: free clothianidin 50 μg/L; CLO-H-OVA 5 μg/mL
[12] = 8 neonicotinoids at the same concentration of 50 nM
[13] = SPR, 1:1 binding kinetic model, read-out: KD (dissociation equilibrium constant)

CCN(Cc1ccc(Cl)nc1)/C(=C\[N+](=O)[O-])NC [C00007]
cross-reactivity rate [1]: <0.1% | cross-reactivity rate [2]: <0.1% | cross-reactivity rate [3]: <0.05% | cross-reactivity rate [4]: <0.1% | cross-reactivity rate [5]: <0.03% | cross-reactivity rate [6]: <0.1% | cross-reactivity rate [7]: <0.1%

N#C/N=C1\SCCN1Cc1ccc(Cl)nc1 [C00005]
cross-reactivity rate [1]: <0.1% | cross-reactivity rate [2]: <0.1% | cross-reactivity rate [3]: <0.05% | cross-reactivity rate [4]: <0.1% | cross-reactivity rate [5]: <0.03% | cross-reactivity rate [6]: <0.1% | cross-reactivity rate [7]: <0.1%

CN1COCN(Cc2cnc(Cl)s2)/C1=N/[N+](=O)[O-] [C00006]
cross-reactivity rate [1]: <0.1% | cross-reactivity rate [2]: <0.1% | cross-reactivity rate [3]: <0.05% | cross-reactivity rate [4]: <0.1% | cross-reactivity rate [5]: <0.03% | cross-reactivity rate [6]: <0.1% | cross-reactivity rate [7]: <0.1%

C/C(=N\C#N)N(C)Cc1ccc(Cl)nc1 [C00004]
cross-reactivity rate [1]: <0.1% | cross-reactivity rate [2]: <0.1% | cross-reactivity rate [3]: <0.05% | cross-reactivity rate [4]: <0.1% | cross-reactivity rate [5]: <0.03% | cross-reactivity rate [6]: <0.1% | cross-reactivity rate [7]: <0.1%

CN/C(=N\[N+](=O)[O-])NCc1cnc(Cl)s1 [clothianidin]
IC50 value ([1]; heterologous ic-ELISA, 5 μg/mL of THC-H-OVA, listed as C00001): 5.22 ng/mL (≈ 0.0209 µM) | cross-reactivity rate [1]: 100% | IC50 value ([2]; heterologous ic-ELISA, 1.25 μg/mL of IMI-H-OVA): 4.62 ng/mL (≈ 0.0185 µM) | cross-reactivity rate [2]: 100% | SPR binding selectivity signal [8, 12]: high signal | Kd [8, 13]: 3.24 nM | SPR binding selectivity signal [9, 12]: high signal | Kd [9, 13]: 7.96 nM | GICA cross-reaction test, effect on T line [10]: complete disappearance of the T line | cross-reactivity rate [3]: 100% | IC50 value [3]: 46 ng/mL (≈ 0.184 µM) | cross-reactivity rate [4]: 100% | IC50 value [4]: 4.4 ng/mL (≈ 0.0176 µM) | cross-reactivity rate [5]: 100% | IC50 value [5]: 25.6 ng/mL (≈ 0.103 µM) | IC50 value [6]: 13.16 ng/mL (≈ 0.0527 µM) | cross-reactivity rate [6]: 100% | IC50 value [7]: 5.38 ng/mL (≈ 0.0215 µM) | cross-reactivity rate [7]: 100% | inhibition of binding of CLO-H-OVA to antibodies [11]: less than 11%

O=[N+]([O-])/N=C1/NCCN1Cc1cnc(Cl)s1 [C00008]
cross-reactivity rate [1]: <0.1% | cross-reactivity rate [2]: <0.1% | cross-reactivity rate [3]: <0.05% | cross-reactivity rate [4]: <0.1% | cross-reactivity rate [5]: <0.03% | cross-reactivity rate [6]: <0.1% | cross-reactivity rate [7]: <0.1%

CN/C(=N/CC1CCOC1)N[N+](=O)[O-] (stereo not shown) [dinotefuran]
cross-reactivity rate [1]: 56% | cross-reactivity rate [2]: no obvious cross-reaction | cross-reactivity rate ([2]; listed as C00002): <0.1% | cross-reactivity rate [3]: 11.8 ^c % | cross-reactivity rate [4]: 64% | cross-reactivity rate [5]: 47.8% | cross-reactivity rate [6]: 42.4% | cross-reactivity rate [7]: <0.1%

O=[N+]([O-])/N=C1\NCCN1Cc1ccc(Cl)nc1 [C00003]
cross-reactivity rate [1]: <0.1% | cross-reactivity rate [2]: <0.1% | cross-reactivity rate [3]: 0.8% | cross-reactivity rate [4]: <0.1% | cross-reactivity rate [5]: <0.03% | cross-reactivity rate [6]: <0.1% | cross-reactivity rate [7]: <0.1%
